Columns and labels:
Type in all cases: functional
[1] = test system: Staphylococcus aureus; experiment: Antibacterial activity against methicillin-resistant Staphylococcus aureus 614019 clinical isolate after 20 to 24 hrs by two-fold microdilution method
[2] = test system: Staphylococcus aureus; experiment: Antibacterial activity against methicillin-resistant Staphylococcus aureus 20106-2 clinical isolate after 20 to 24 hrs by two-fold microdilution method
[3] = test system: Staphylococcus aureus; experiment: Antibacterial activity against methicillin-resistant Staphylococcus aureus 20534 clinical isolate after 20 to 24 hrs by two-fold microdilution method
[4] = test system: Staphylococcus aureus; experiment: Antibacterial activity against methicillin-resistant Staphylococcus aureus 221022 clinical isolate after 20 to 24 hrs by two-fold microdilution method
[5] = test system: Staphylococcus aureus; experiment: Antibacterial activity against methicillin-resistant Staphylococcus aureus 111625 clinical isolate after 20 to 24 hrs by two-fold microdilution method
[6] = test system: Staphylococcus aureus; experiment: Antibacterial activity against methicillin-resistant Staphylococcus aureus 30116-1 clinical isolate after 20 to 24 hrs by two-fold microdilution method
[7] = test system: Staphylococcus aureus; experiment: Antibacterial activity against methicillin-resistant Staphylococcus aureus 10281-2 clinical isolate after 20 to 24 hrs by two-fold microdilution method
[8] = test system: Staphylococcus aureus; experiment: Antibacterial activity against methicillin-resistant Staphylococcus aureus 202045 clinical isolate after 20 to 24 hrs by two-fold microdilution method
[9] = test system: Escherichia coli; experiment: Antibacterial activity against Escherichia coli ATCC 25922 after 20 to 24 hrs by two-fold microdilution method
[10] = test system: Staphylococcus aureus; experiment: Antibacterial activity against methicillin-resistant Staphylococcus aureus 112047 clinical isolate after 20 to 24 hrs by two-fold microdilution method
[11] = test system: Staphylococcus aureus; experiment: Antibacterial activity against methicillin-resistant Staphylococcus aureus 1107027 clinical isolate after 20 to 24 hrs by two-fold microdilution method
[12] = test system: Staphylococcus aureus; experiment: Antibacterial activity against methicillin-resistant Staphylococcus aureus 131215 clinical isolate after 20 to 24 hrs by two-fold microdilution method
[13] = test system: Staphylococcus aureus; experiment: Antibacterial activity against methicillin-resistant Staphylococcus aureus 912014 clinical isolate after 20 to 24 hrs by two-fold microdilution method
[14] = test system: Staphylococcus aureus; experiment: Antibacterial activity against methicillin-resistant Staphylococcus aureus 110834 clinical isolate after 20 to 24 hrs by two-fold microdilution method
[15] = test system: Staphylococcus aureus; experiment: Antibacterial activity against methicillin-resistant Staphylococcus aureus 111423 clinical isolate after 20 to 24 hrs by two-fold microdilution method
[16] = test system: Staphylococcus aureus; experiment: Antibacterial activity against methicillin-resistant Staphylococcus aureus 531220 clinical isolate after 20 to 24 hrs by two-fold microdilution method
[17] = test system: Staphylococcus aureus; experiment: Antibacterial activity against methicillin-resistant Staphylococcus aureus 120827 clinical isolate after 20 to 24 hrs by two-fold microdilution method
[18] = test system: Staphylococcus aureus; experiment: Antibacterial activity against methicillin-resistant Staphylococcus aureus 519030 clinical isolate after 20 to 24 hrs by two-fold microdilution method
[19] = test system: Staphylococcus aureus; experiment: Antibacterial activity against methicillin-resistant Staphylococcus aureus clinical isolate after 20 to 24 hrs by two-fold microdilution method
[20] = test system: Staphylococcus aureus; experiment: Antibacterial activity against methicillin-resistant Staphylococcus aureus 625032 clinical isolate after 20 to 24 hrs by two-fold microdilution method
[21] = test system: Staphylococcus aureus; experiment: Antibacterial activity against […] Staphylococcus aureus ATCC 25923 after 20 to 24 hrs by two-fold microdilution method
[22] = test system: Staphylococcus aureus; experiment: Antibacterial activity against methicillin-resistant Staphylococcus aureus 414244 clinical isolate after 20 to 24 hrs by two-fold microdilution method
[23] = test system: Staphylococcus aureus; experiment: Antibacterial activity against methicillin-resistant Staphylococcus aureus 1026211 clinical isolate after 20 to 24 hrs by two-fold microdilution method
[24] = test system: Staphylococcus aureus; experiment: Antibacterial activity against methicillin-resistant Staphylococcus aureus 1025022 clinical isolate after 20 to 24 hrs by two-fold microdilution method
[25] = test system: Staphylococcus aureus; experiment: Antibacterial activity against methicillin-resistant Staphylococcus aureus 530231 clinical isolate after 20 to 24 hrs by two-fold microdilution method
[26] = test system: Enterococcus faecalis; experiment: Antibacterial activity against Enterococcus faecalis ATCC 29212 after 20 to 24 hrs by two-fold microdilution method
[27] = test system: Staphylococcus aureus; experiment: Antibacterial activity against methicillin-resistant Staphylococcus aureus 1212221 clinical isolate after 20 to 24 hrs by two-fold microdilution method
[28] = test system: Staphylococcus aureus; experiment: Antibacterial activity against methicillin-resistant Staphylococcus aureus 212014 clinical isolate after 20 to 24 hrs by two-fold microdilution method
[29] = test system: Staphylococcus aureus; experiment: Antibacterial activity against methicillin-resistant Staphylococcus aureus 112430 clinical isolate after 20 to 24 hrs by two-fold microdilution method
[30] = test system: Staphylococcus aureus; experiment: Antibacterial activity against methicillin-resistant Staphylococcus aureus 11819 clinical isolate after 20 to 24 hrs by two-fold microdilution method
[31] = test system: Staphylococcus aureus; experiment: Antibacterial activity against methicillin-resistant Staphylococcus aureus 908046 clinical isolate after 20 to 24 hrs by two-fold microdilution method
[32] = test system: Staphylococcus aureus; experiment: Antibacterial activity against methicillin-resistant Staphylococcus aureus 1019240 clinical isolate after 20 to 24 hrs by two-fold microdilution method
[33] = test system: Staphylococcus aureus; experiment: Antibacterial activity against methicillin-resistant Staphylococcus aureus 724244 clinical isolate after 20 to 24 hrs by two-fold microdilution method
[34] = test system: Staphylococcus haemolyticus; experiment: Antibacterial activity against Staphylococcus haemolyticus CICC 10373 after 20 to 24 hrs by two-fold microdilution method
[35] = test system: Staphylococcus aureus; experiment: Antibacterial activity against methicillin-resistant Staphylococcus aureus 219236 clinical isolate after 20 to 24 hrs by two-fold microdilution method
[36] = test system: Streptococcus pneumoniae; experiment: Antibacterial activity against Streptococcus pneumoniae ATCC 6305 after 20 to 24 hrs by two-fold microdilution method
[37] = test system: Staphylococcus aureus; experiment: Antibacterial activity against methicillin-resistant Staphylococcus aureus 118038 clinical isolate after 20 to 24 hrs by two-fold microdilution method
[38] = test system: Staphylococcus aureus; experiment: Antibacterial activity against methicillin-resistant Staphylococcus aureus 1012039 clinical isolate after 20 to 24 hrs by two-fold microdilution method
[39] = test system: Staphylococcus aureus; experiment: Antibacterial activity against methicillin-resistant Staphylococcus aureus 224001 clinical isolate after 20 to 24 hrs by two-fold microdilution method
[40] = test system: Staphylococcus aureus; experiment: Antibacterial activity against methicillin-resistant Staphylococcus aureus 123152 clinical isolate after 20 to 24 hrs by two-fold microdilution method
[41] = test system: Staphylococcus aureus; experiment: Antibacterial activity against methicillin-resistant Staphylococcus aureus 523005 clinical isolate after 20 to 24 hrs by two-fold microdilution method
[42] = test system: Staphylococcus aureus; experiment: Antibacterial activity against methicillin-resistant Staphylococcus aureus 221014 clinical isolate after 20 to 24 hrs by two-fold microdilution method
[43] = test system: Staphylococcus aureus; experiment: Antibacterial activity against methicillin-resistant Staphylococcus aureus 10844 clinical isolate after 20 to 24 hrs by two-fold microdilution method
[44] = test system: Staphylococcus aureus; experiment: Antibacterial activity against methicillin-resistant Staphylococcus aureus 921026 clinical isolate after 20 to 24 hrs by two-fold microdilution method
[45] = test system: Staphylococcus aureus; experiment: Antibacterial activity against methicillin-resistant Staphylococcus aureus 304243 clinical isolate after 20 to 24 hrs by two-fold microdilution method
[46] = test system: Staphylococcus aureus; experiment: Antibacterial activity against methicillin-resistant Staphylococcus aureus ATCC 43300 after 20 to 24 hrs by two-fold microdilution method
[47] = test system: Staphylococcus aureus; experiment: Antibacterial activity against methicillin-resistant Staphylococcus aureus 531026 clinical isolate after 20 to 24 hrs by two-fold microdilution method

CN(C)CCCCCOC(=O)c1c2c(n3cc(Br)ccc13)C(=O)c1ncccc1C2=O
≤ 7.8 ng/mL: MIC [21] | MIC [46]
0.063 µg/mL: MIC [23] | MIC [28] | MIC [31]
0.125 µg/mL: MIC [1] | MIC [10] | MIC [20] | MIC [26] | MIC [27] | MIC [30] | MIC [33] | MIC [35] | MIC [38]
1 µg/mL: MIC [2] | MIC [9]
0.5 µg/mL: MIC [3] | MIC [4] | MIC [6] | MIC [8] | MIC [11] | MIC [13] | MIC [14] | MIC [18] | MIC90 [19] | MIC [22] | MIC [24] | MIC [29] | MIC [32] | MIC [36] | MIC [39] | MIC [41] | MIC [42] | MIC [47]
2 µg/mL: MIC [15]
0.25 µg/mL: MIC [5] | MIC [7] | MIC [12] | MIC [16] | MIC [17] | MIC50 [19] | MIC [25] | MIC [34] | MIC [37] | MIC [40] | MIC [43] | MIC [44] | MIC [45]
